Experimental data published in article PMC6591251, “Discovery of potent necroptosis inhibitors targeting RIPK1 kinase activity for the treatment of inflammatory disorder and cancer metastasis” (Cell Death & Disease, 2019).

Experiments:
EPHA7 = target: T1, EPHA7 (Homo sapiens, UniProt Q15375); assay: RBC kinase panel; format: biochemical; conditions: ATP 10 μM, Data1, Data2
T1 construct: purchased Reaction Biology Corporation
Summary of the method: (§1)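 Duplicate determinations were made for each of 369 human kinases exposed to 1 μM compound, with reactions run at 10 μM ATP.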

DYRK1/DYRK1A = target: T2, DYRK1/DYRK1A (Homo sapiens, UniProt Q13627); assay: RBC kinase panel; format: biochemical; conditions: ATP 10 μM, Data1, Data2
T2 construct: purchased Reaction Biology Corporation
Summary of the method: as §1

PAK5 = target: T3, PAK5 (Homo sapiens, UniProt Q9P286); assay: RBC kinase panel; format: biochemical; conditions: ATP 10 μM, Data1, Data2
T3 construct: purchased Reaction Biology Corporation
T3 sequence (Q9P286 whole entry): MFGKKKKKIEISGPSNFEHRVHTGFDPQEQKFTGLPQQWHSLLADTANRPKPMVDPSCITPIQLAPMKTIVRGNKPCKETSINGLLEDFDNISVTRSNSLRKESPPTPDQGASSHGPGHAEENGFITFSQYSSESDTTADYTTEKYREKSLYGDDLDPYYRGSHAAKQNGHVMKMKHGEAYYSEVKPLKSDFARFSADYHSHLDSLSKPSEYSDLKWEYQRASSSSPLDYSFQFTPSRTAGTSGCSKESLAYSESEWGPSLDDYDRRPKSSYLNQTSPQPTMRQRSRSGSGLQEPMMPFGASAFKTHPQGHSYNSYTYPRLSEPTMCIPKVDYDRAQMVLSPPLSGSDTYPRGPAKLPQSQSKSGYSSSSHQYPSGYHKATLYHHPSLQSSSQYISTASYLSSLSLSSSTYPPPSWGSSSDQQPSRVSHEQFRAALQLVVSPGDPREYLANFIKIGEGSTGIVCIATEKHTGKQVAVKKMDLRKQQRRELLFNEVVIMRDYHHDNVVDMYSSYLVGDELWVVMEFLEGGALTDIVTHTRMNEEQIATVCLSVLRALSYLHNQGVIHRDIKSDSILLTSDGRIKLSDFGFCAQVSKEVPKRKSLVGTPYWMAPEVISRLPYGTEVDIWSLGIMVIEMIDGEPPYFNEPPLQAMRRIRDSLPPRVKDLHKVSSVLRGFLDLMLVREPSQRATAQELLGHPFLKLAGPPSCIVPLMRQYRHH
Summary of the method: as §1

PAK4 = target: T4, PAK4 (Homo sapiens, UniProt O96013); assay: RBC kinase panel; format: biochemical; conditions: ATP 10 μM, Data1, Data2
T4 construct: purchased Reaction Biology Corporation
T4 sequence (O96013 whole entry): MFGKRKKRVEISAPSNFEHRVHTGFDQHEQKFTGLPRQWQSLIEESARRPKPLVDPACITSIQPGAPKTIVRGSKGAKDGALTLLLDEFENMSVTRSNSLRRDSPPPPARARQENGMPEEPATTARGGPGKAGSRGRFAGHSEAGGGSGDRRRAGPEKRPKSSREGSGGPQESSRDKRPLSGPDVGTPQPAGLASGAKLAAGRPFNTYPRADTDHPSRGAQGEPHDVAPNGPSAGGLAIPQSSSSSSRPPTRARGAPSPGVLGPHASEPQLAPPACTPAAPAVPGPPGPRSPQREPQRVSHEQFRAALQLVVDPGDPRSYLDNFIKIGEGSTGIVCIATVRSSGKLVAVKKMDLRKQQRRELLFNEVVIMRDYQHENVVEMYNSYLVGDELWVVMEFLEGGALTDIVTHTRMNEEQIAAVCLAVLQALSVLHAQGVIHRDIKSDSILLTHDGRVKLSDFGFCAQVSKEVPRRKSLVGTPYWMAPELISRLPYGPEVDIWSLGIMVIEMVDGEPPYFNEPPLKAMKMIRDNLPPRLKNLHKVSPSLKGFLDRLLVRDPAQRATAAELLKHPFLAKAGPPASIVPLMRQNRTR
Summary of the method: as §1

SLK/STK2 = target: T5, SLK/STK2 (Homo sapiens, UniProt Q9H2G2); assay: RBC kinase panel; format: biochemical; conditions: ATP 10 μM, Data1, Data2
T5 construct: purchased Reaction Biology Corporation
T5 sequence (Q9H2G2 whole entry): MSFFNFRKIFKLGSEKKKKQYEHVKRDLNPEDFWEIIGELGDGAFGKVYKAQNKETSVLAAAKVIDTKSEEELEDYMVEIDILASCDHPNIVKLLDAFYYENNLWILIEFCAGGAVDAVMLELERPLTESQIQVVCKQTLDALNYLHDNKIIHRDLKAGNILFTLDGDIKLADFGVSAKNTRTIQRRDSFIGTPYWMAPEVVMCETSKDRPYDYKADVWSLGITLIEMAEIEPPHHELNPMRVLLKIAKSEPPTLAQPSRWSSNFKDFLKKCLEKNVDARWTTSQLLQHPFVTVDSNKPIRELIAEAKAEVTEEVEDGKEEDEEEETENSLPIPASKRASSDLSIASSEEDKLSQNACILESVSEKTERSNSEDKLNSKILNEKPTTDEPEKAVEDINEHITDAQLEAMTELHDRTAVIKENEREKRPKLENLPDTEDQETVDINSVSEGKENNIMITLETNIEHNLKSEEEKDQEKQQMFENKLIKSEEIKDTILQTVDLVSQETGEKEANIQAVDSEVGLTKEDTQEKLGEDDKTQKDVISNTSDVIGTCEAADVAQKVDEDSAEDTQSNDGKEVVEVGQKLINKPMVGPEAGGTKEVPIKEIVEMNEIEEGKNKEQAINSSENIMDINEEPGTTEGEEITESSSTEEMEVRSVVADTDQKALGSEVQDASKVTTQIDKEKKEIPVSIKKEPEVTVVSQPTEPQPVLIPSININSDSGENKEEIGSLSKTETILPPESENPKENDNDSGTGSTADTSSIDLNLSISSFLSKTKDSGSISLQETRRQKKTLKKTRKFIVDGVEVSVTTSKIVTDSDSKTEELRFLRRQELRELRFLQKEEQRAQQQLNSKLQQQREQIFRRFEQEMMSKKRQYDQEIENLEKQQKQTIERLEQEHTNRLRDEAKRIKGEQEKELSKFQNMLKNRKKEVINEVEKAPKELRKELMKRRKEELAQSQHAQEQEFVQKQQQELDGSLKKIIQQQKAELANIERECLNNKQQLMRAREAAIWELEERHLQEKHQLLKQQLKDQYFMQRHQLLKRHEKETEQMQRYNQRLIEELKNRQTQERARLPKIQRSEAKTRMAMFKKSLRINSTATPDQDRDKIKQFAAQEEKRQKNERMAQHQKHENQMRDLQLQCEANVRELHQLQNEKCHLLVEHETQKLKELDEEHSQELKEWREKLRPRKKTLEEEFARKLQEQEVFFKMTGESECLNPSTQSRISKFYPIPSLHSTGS
Summary of the method: as §1

FGFR2 = target: T6, FGFR2 (Homo sapiens, UniProt P21802); assay: RBC kinase panel; format: biochemical; conditions: ATP 10 μM, Data1, Data2
T6 construct: purchased Reaction Biology Corporation
T6 sequence (P21802 22-821): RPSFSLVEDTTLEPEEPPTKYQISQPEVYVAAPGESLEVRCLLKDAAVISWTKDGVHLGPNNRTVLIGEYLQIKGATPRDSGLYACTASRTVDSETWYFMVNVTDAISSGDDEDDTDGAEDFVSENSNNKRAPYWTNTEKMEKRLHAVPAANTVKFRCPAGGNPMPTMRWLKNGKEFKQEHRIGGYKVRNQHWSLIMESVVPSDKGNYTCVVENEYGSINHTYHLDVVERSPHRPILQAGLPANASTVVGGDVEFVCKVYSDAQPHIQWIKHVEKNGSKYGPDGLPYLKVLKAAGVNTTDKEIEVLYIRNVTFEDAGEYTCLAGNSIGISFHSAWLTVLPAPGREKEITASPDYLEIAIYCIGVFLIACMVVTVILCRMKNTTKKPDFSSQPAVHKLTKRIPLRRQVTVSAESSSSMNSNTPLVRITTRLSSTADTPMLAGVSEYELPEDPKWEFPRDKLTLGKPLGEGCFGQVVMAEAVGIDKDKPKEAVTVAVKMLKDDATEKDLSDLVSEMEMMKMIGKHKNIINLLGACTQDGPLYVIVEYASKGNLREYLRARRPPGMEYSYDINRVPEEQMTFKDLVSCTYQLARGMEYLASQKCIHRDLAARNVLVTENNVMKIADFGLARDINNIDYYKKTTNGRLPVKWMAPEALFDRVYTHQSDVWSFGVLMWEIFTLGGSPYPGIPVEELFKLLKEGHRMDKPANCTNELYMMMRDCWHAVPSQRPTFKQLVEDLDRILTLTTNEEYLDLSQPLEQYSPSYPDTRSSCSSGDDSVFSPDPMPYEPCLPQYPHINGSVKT
Summary of the method: as §1

[1] = system: B16-F10 or RFP-LL/2 cells; assay: Proliferation rate and invasion ability without endothelial monolayer; format: cell-based, mouse; conditions: B16-F10 or RFP-LL/2, in vitro
Description: (§2) Studies have shown that RIPK1 kinase activity is involved in the promotion of tumor metastasis through death receptor 6-dependent necroptosis of endothelial cells[22] or VEGF-dependent activation of vascular permeability. We thus evaluated the therapeutic effect of PK68 on lung metastasis of mouse melanoma B16-F10 cells in vivo. […] After 2 weeks, the metastasis of B16-F10 cells was measured by histological analysis and assessed as the number of metastasis nodules in the lung. […] Two weeks after intravenous injection of RFP-LL/2 cells, RFP^+ LL/2 cells were isolated from the tumor tissues by flow cytometer sorting and no signal of phosphorylated RIPK1 was detected in these tumors cells (Supplementary Fig. 22). Six hours after intravenous injection of RFP-LL/2 cells into C57BL/6 mice, the RFP-LL/2 cells have extravasated through blood vessels into the lung (Supplementary Fig. 23). […] Further, we evaluated the effect of PK68 on the tumor cell transmigration across the cultured endothelium. We isolated CD31^+ endothelial cells from the lungs and performed the transendothelial migration assay as previously reported. […]
(A-B) B16-F10 and RFP-LL/2 cells were pretreated with indicated compounds for 1h and then cell viability was measured by cell Titer-Glo. (C) B16-F10 and RFP-LL/2 cells were pre-treated with indicated compounds and invasion ability was measured by the transwell assay.

human and mouse cells = assay: RIPK1-dependent necroptosis (abstract summary); format: cell-based; conditions: read-out: EC50, inhibition of RIPK1-dependent necroptosis
From the text: Necroptosis is a form of regulated necrosis controlled by receptor-interacting kinase 1 (RIPK1 or RIP1), RIPK3 (RIP3), and pseudokinase mixed lineage kinase domain-like protein (MLKL). […] Herein, we discovered the small-molecule PK6 and its derivatives as a novel class of necroptosis inhibitors that directly block the kinase activity of RIPK1. […] PK68 efficiently blocks cellular activation of RIPK1, RIPK3, and MLKL upon necroptosis stimuli. […] Importantly, PK68 provides strong protection against TNF-α-induced systemic inflammatory response syndrome in vivo.

TRKA = TRKA (Homo sapiens, UniProt P04629); assay: Kinase activity assay at a CRO; format: biochemical; conditions: CRO company
Sequence of TRKA (P04629 33-796): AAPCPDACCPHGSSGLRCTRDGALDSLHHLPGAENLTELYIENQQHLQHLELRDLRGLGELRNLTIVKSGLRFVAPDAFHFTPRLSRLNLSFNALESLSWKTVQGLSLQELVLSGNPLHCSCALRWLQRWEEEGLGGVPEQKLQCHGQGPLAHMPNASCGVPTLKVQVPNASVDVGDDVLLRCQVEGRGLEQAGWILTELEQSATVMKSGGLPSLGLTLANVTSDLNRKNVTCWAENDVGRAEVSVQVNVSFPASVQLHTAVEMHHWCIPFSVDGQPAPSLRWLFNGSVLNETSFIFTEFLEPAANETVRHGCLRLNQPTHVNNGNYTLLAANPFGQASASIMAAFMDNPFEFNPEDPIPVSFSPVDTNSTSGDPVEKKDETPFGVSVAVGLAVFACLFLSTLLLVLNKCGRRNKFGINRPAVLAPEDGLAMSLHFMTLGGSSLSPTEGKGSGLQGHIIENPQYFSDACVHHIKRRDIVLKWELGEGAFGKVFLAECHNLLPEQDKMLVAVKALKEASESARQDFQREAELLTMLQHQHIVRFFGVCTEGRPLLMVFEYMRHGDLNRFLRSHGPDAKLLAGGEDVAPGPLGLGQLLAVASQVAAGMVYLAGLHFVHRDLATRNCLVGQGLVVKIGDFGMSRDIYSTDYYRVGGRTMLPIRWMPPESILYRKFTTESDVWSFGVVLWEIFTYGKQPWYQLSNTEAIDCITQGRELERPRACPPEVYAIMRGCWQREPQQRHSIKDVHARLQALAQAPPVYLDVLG
Description: (§3) Further, we evaluated the selectivity of PK68 against a panel of 369 kinases provided by Reaction Biology (at 1000 nM). […] In addition, we followed on some of the active “hits” from the kinome scan. PK68 was tested against TNIK and TRKA by a reputable CRO company. […] RIPK1 is known to mediate NF-κB activation independently of its kinase activity. […] It has been shown that homodimerization of RIPK3 or MLKL induced by the dimerizer leads to necroptosis bypassing the upstream signals[10],[37]. […] This dimerized RIPK3-induced necroptosis was blocked by RIPK3 inhibitor GSK873 but was not blocked by the RIPK1 inhibitor necrostatin-1. […] (Fig. 4e).
(§4) Supplementary Figure 20. The kinase activity assays of PK68 in TNIK and TRKA in vitro, Staurosporine as control.
(§5) (A) The IC50 values were obtained by increasing concentrations of PK68 and Staurosporine in TNIK. (B) The IC50 values were obtained by increasing concentrations of PK68 and Staurosporine in TRKA.

TNIK = TNIK (Homo sapiens, UniProt Q9UKE5); assay: Kinase activity assay at a CRO; format: biochemical; conditions: CRO company
Description: as §3, §4, §5

[2] = system: RFP-LL/2 cells through CD31+ endothelial cell monolayer; assay: Transendothelial migration assay; format: cell-based, mouse; conditions: 2 h pretreatment, 20 h
Description: as §2, with “endothelium.” for “endothelium. We isolated CD31^+ endothelial cells from the lungs and performed the transendothelial migration assay as previously reported.”
Primary CD31^+ endothelial cells isolated from lungs by using CD31 beads (Miltenyi Biotec) were used for the transendothelial migration assay as previously described. […] Then fluorescence picture of transmigrated RFP-LL/2 cells were taken at ×40 magnification under the microscope (Nikon), and the intensity of fluorescence was analyzed by Image J software. […]

T1 sequence (Q15375 28-998): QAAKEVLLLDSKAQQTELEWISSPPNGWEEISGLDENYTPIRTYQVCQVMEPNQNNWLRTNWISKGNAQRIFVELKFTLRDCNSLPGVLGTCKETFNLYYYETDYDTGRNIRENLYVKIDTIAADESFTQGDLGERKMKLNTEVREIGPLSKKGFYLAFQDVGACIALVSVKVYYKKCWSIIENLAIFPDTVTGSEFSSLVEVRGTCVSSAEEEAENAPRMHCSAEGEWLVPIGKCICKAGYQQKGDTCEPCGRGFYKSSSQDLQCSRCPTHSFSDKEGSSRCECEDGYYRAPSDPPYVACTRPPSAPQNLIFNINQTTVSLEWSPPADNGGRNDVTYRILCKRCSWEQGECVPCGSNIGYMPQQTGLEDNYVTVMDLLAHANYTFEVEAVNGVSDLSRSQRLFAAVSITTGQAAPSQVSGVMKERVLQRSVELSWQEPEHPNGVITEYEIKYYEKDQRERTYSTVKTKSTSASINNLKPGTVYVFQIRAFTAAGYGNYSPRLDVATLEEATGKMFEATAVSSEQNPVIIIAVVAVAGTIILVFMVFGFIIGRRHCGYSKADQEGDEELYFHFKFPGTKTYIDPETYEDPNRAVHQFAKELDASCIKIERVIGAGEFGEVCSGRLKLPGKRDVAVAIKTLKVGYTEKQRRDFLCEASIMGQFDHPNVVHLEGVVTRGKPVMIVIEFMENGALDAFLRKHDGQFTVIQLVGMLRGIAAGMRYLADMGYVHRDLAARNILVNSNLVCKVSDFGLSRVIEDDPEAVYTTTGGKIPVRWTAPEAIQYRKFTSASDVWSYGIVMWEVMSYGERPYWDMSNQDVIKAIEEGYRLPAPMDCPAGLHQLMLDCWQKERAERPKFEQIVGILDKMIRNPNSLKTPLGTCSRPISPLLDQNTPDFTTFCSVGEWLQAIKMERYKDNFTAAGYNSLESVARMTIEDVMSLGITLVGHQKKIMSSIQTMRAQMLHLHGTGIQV

CC(=O)Nc1nc2ccc(-c3cnc(C)c(NC(=O)OC4CCCCC4)c3)cc2s1 [PK68, cyclohexyl (5-(2-acetamidobenzo[d]thiazol-6-yl)-2-methylpyridin-3-yl)carbamate]
Activity% (EPHA7; 1 μM): 85.80% | activity at 1 µM (EPHA7): 86.9% | Activity% (DYRK1/DYRK1A; 1 μM): 95.93% | activity at 1 µM (DYRK1/DYRK1A): 97.4% | Activity% (PAK5; 1 μM): 98.16% | activity at 1 µM (PAK5): 102% | Activity% (PAK4; 1 μM): 101.97% | activity at 1 µM (PAK4): 104% | Activity% (SLK/STK2; 1 μM): 91.29% | activity at 1 µM (SLK/STK2): 91.9% | Activity% (FGFR2; 1 μM): 88.90% | activity at 1 µM (FGFR2): 91% | proliferation rate and invasion ability [1]: no obvious influence | EC50 (human and mouse cells): 0.014 to 0.022 µM | IC50 (TRKA): ~10 µM | IC50 (TNIK): ~10 µM | transmigration of RFP-LL/2 cells through the endothelial cell monolayer [2]: attenuated
